According to patent publication US7192906B2, “Substituted pyrazole derivatives, production process thereof, and herbicide compositions containing the derivatives” (SDS Biotech K.K., priority 2001, dated 2007):

Key:
Assay type in all cases: in vivo
Digitaria adscendens [1] = assay: Test Example 1 upland field foliage treatment; conditions: Table 4, upland field foliage treatment, index 0-5
In short: (§1)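 Scored 0–5 (0: under 10%, 5: 90% or more effect or phytotoxicity) on day 21 after treatment; plants sown in upland soil received a leaf-surface spray 14 days post-sowing of diluted wettable powder delivering 1 kg active ingredient/ha.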

Chenopodium album [2] = assay: Test Example 1 upland field foliage treatment; conditions: Table 4, upland field foliage treatment, index 0-5
In short: as §1

Setaria viridis [3] = assay: Test Example 1 upland field foliage treatment; conditions: Table 4, upland field foliage treatment, index 0-5
In short: as §1

Stellaria media [4] = assay: Test Example 1 upland field foliage treatment; conditions: Table 4, upland field foliage treatment, index 0-5
In short: as §1

Digitaria adscendens [5] = assay: Test Example 2 upland soil treatment; conditions: Table 5, upland soil treatment, index 0-5
In short: (§2)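 Pre-emergence soil treatment: seeds sown in upland soil in pots and covered with about 1 cm soil. Next day, a water-diluted wettable powder was sprayed evenly on the soil surface at 1 kg active ingredient per hectare. Weed control or crop injury was scored 0–5 (10% to ≥90% bands) 21 days later.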

Chenopodium album [6] = assay: Test Example 2 upland soil treatment; conditions: Table 5, upland soil treatment, index 0-5
In short: as §2

Setaria viridis [7] = assay: Test Example 2 upland soil treatment; conditions: Table 5, upland soil treatment, index 0-5
In short: as §2

Stellaria media [8] = assay: Test Example 2 upland soil treatment; conditions: Table 5, upland soil treatment, index 0-5
In short: as §2

[9] = tested on: wheat (Triticum aestivum); assay: Test Example 2 upland soil treatment, crop phytotoxicity; conditions: Table 5, upland soil treatment, index 0-5
In short: as §2

soybean (Glycine max) [10] = assay: as above; conditions: Table 5, upland soil treatment, index 0-5
In short: as §2

[11] = tested on: wheat (Triticum aestivum); assay: Test Example 1 upland field foliage treatment, crop phytotoxicity; conditions: Table 4, upland field foliage treatment, index 0-5
In short: as §1

soybean (Glycine max) [12] = assay: as above; conditions: Table 4, upland field foliage treatment, index 0-5
In short: as §1

Scirpus juncoides = assay: Test Example 3 paddy field treatment; conditions: Table 6, paddy field treatment, active ingredient 1 kg per hectare, 21st day after dropping, index 0-5
In short: (§3)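 Scoring used a 0–5 scale of herbicidal effect or phytotoxicity, from <10% to ≥90%, taken 21 days after treatment. Treatment was 1 kg a.i./ha as diluted wettable powder dripped onto 4 cm-deep flooded pots sown with the weeds, 10 days after transplanting two-leaf Koshihikari rice.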

Echinochloa crusgalli = assay: Test Example 3 paddy field treatment; conditions: Table 6, paddy field treatment, active ingredient 1 kg per hectare, 21st day after dropping, index 0-5
In short: as §3

Monochoria vaginalis = assay: Test Example 3 paddy field treatment; conditions: Table 6, paddy field treatment, active ingredient 1 kg per hectare, 21st day after dropping, index 0-5
In short: as §3

Ammannia multiflora = assay: Test Example 3 paddy field treatment; conditions: Table 6, paddy field treatment, active ingredient 1 kg per hectare, 21st day after dropping, index 0-5
In short: as §3

Rice (Oryza sativa) = assay: Test Example 3 paddy field treatment, crop phytotoxicity; conditions: Table 6, paddy field treatment, transplanted rice, active ingredient 1 kg per hectare, 21st day after dropping, index 0-5
In short: as §3

Structure (SMILES) | Herbicidal activity DA: Digitaria adscendens (Digitaria adscendens [1]) | Herbicidal activity CA: Chenopodium album (Chenopodium album [2]) | Herbicidal activity SV: Setaria viridis (Setaria viridis [3]) | Herbicidal activity SM: Stellaria media (Stellaria media [4]) | Herbicidal activity DA: Digitaria adscendens (Digitaria adscendens [5]) | Herbicidal activity CA: Chenopodium album (Chenopodium album [6]) | Herbicidal activity SV: Setaria viridis (Setaria viridis [7]) | Herbicidal activity SM: Stellaria media (Stellaria media [8]) | Herbicidal activity (phytotoxicity) TA: Wheat (Triticum aestivum) [9] | Herbicidal activity (phytotoxicity) GM: Soybean (Glycine max) (soybean (Glycine max) [10]) | Herbicidal activity (phytotoxicity) TA: Wheat (Triticum aestivum) [11] | Herbicidal activity (phytotoxicity) GM: Soybean (Glycine max) (soybean (Glycine max) [12]) | Herbicidal activity SJ (Scirpus juncoides) | Herbicidal activity EC (Echinochloa crusgalli) | Herbicidal activity MV (Monochoria vaginalis) | Herbicidal activity AM (Ammannia multiflora) | Herbicidal activity (phytotoxicity) OS (Rice (Oryza sativa))
CNC(=O)C(Cn1cc(C)c(-c2ccc(Cl)cc2F)n1)=NOC [Compound 81] | 5 (herbicidal effect of not less than 90%, or phytotoxicity of 90% or more) | 5 (herbicidal effect of not less than 90%, or phytotoxicity of 90% or more) | 5 (herbicidal effect of not less than 90%, or phytotoxicity of 90% or more) | 5 (herbicidal effect of not less than 90%, or phytotoxicity of 90% or more) | 5 (herbicidal effect of not less than 90%, or phytotoxicity of 90% or more) | 5 (herbicidal effect of not less than 90%, or phytotoxicity of 90% or more) | 5 (herbicidal effect of not less than 90%, or phytotoxicity of 90% or more) | 5 (herbicidal effect of not less than 90%, or phytotoxicity of 90% or more) | 0 (herbicidal effect of not less than 0% and less than 10%, or phytotoxicity of 0% or more and less than 10%) | 1 (herbicidal effect of not less than 10% and less than 30%, or phytotoxicity of 10% or more and less than 30%) | 0 (herbicidal effect of not less than 0% and less than 10%, or phytotoxicity of 0% or more and less than 10%) | 0 (herbicidal effect of not less than 0% and less than 10%, or phytotoxicity of 0% or more and less than 10%) | 5 (herbicidal effect of not less than 90%, or phytotoxicity of 90% or more) | 5 (herbicidal effect of not less than 90%, or phytotoxicity of 90% or more) | 5 (herbicidal effect of not less than 90%, or phytotoxicity of 90% or more) | 5 (herbicidal effect of not less than 90%, or phytotoxicity of 90% or more) | 0 (herbicidal effect of not less than 0% and less than 10%, or phytotoxicity of 0% or more and less than 10%)
CNC(=O)C(Cn1cc(C)c(-c2cc(C(F)(F)F)ccc2F)n1)=NOC [Compound 86] | 5 (herbicidal effect of not less than 90%, or phytotoxicity of 90% or more) | 4 (herbicidal effect of not less than 70% and less than 90%, or phytotoxicity of 70% or more and less than 90%) | 3 (herbicidal effect of not less than 50% and less than 70%, or phytotoxicity of 50% or more and less than 70%) | 4 (herbicidal effect of not less than 70% and less than 90%, or phytotoxicity of 70% or more and less than 90%) | 5 (herbicidal effect of not less than 90%, or phytotoxicity of 90% or more) | 5 (herbicidal effect of not less than 90%, or phytotoxicity of 90% or more) | 4 (herbicidal effect of not less than 70% and less than 90%, or phytotoxicity of 70% or more and less than 90%) | 5 (herbicidal effect of not less than 90%, or phytotoxicity of 90% or more) | 0 (herbicidal effect of not less than 0% and less than 10%, or phytotoxicity of 0% or more and less than 10%) | 1 (herbicidal effect of not less than 10% and less than 30%, or phytotoxicity of 10% or more and less than 30%) | 0 (herbicidal effect of not less than 0% and less than 10%, or phytotoxicity of 0% or more and less than 10%) | 0 (herbicidal effect of not less than 0% and less than 10%, or phytotoxicity of 0% or more and less than 10%) | 4 (herbicidal effect of not less than 70% and less than 90%, or phytotoxicity of 70% or more and less than 90%) | 5 (herbicidal effect of not less than 90%, or phytotoxicity of 90% or more) | 5 (herbicidal effect of not less than 90%, or phytotoxicity of 90% or more) | 5 (herbicidal effect of not less than 90%, or phytotoxicity of 90% or more) | 0 (herbicidal effect of not less than 0% and less than 10%, or phytotoxicity of 0% or more and less than 10%)
CNC(=O)C(Cn1cc(C)c(-c2cc(F)c(OC)c(F)c2)n1)=NOC [Compound 92] | 5 (herbicidal effect of not less than 90%, or phytotoxicity of 90% or more) | 5 (herbicidal effect of not less than 90%, or phytotoxicity of 90% or more) | 5 (herbicidal effect of not less than 90%, or phytotoxicity of 90% or more) | 5 (herbicidal effect of not less than 90%, or phytotoxicity of 90% or more) | 5 (herbicidal effect of not less than 90%, or phytotoxicity of 90% or more) | 5 (herbicidal effect of not less than 90%, or phytotoxicity of 90% or more) | 5 (herbicidal effect of not less than 90%, or phytotoxicity of 90% or more) | 5 (herbicidal effect of not less than 90%, or phytotoxicity of 90% or more) | 0 (herbicidal effect of not less than 0% and less than 10%, or phytotoxicity of 0% or more and less than 10%) | 0 (herbicidal effect of not less than 0% and less than 10%, or phytotoxicity of 0% or more and less than 10%) | 0 (herbicidal effect of not less than 0% and less than 10%, or phytotoxicity of 0% or more and less than 10%) | 0 (herbicidal effect of not less than 0% and less than 10%, or phytotoxicity of 0% or more and less than 10%) | 5 (herbicidal effect of not less than 90%, or phytotoxicity of 90% or more) | 5 (herbicidal effect of not less than 90%, or phytotoxicity of 90% or more) | 5 (herbicidal effect of not less than 90%, or phytotoxicity of 90% or more) | 5 (herbicidal effect of not less than 90%, or phytotoxicity of 90% or more) | 0 (herbicidal effect of not less than 0% and less than 10%, or phytotoxicity of 0% or more and less than 10%)
CCc1cn(CC(=NOC)C(=O)NC)nc1-c1ccccc1 [Compound 98] | 4 (herbicidal effect of not less than 70% and less than 90%, or phytotoxicity of 70% or more and less than 90%) | 4 (herbicidal effect of not less than 70% and less than 90%, or phytotoxicity of 70% or more and less than 90%) | 3 (herbicidal effect of not less than 50% and less than 70%, or phytotoxicity of 50% or more and less than 70%) | 4 (herbicidal effect of not less than 70% and less than 90%, or phytotoxicity of 70% or more and less than 90%) | 4 (herbicidal effect of not less than 70% and less than 90%, or phytotoxicity of 70% or more and less than 90%) | 4 (herbicidal effect of not less than 70% and less than 90%, or phytotoxicity of 70% or more and less than 90%) | 3 (herbicidal effect of not less than 50% and less than 70%, or phytotoxicity of 50% or more and less than 70%) | 5 (herbicidal effect of not less than 90%, or phytotoxicity of 90% or more) | 0 (herbicidal effect of not less than 0% and less than 10%, or phytotoxicity of 0% or more and less than 10%) | 0 (herbicidal effect of not less than 0% and less than 10%, or phytotoxicity of 0% or more and less than 10%) | 0 (herbicidal effect of not less than 0% and less than 10%, or phytotoxicity of 0% or more and less than 10%) | 0 (herbicidal effect of not less than 0% and less than 10%, or phytotoxicity of 0% or more and less than 10%) | 4 (herbicidal effect of not less than 70% and less than 90%, or phytotoxicity of 70% or more and less than 90%) | 5 (herbicidal effect of not less than 90%, or phytotoxicity of 90% or more) | 5 (herbicidal effect of not less than 90%, or phytotoxicity of 90% or more) | 4 (herbicidal effect of not less than 70% and less than 90%, or phytotoxicity of 70% or more and less than 90%) | 0 (herbicidal effect of not less than 0% and less than 10%, or phytotoxicity of 0% or more and less than 10%)
